{"source": "patent US20090068143A1", "about": "“ORALLY EFFECTIVE C[…]” (priority 2005, published 2009)", "key": {"ICR male mice": {"system": "ICR male mice", "assay": "Tetrad Assay (safety)"}, "iNOS [1]": {"system": "iNOS", "assay": "iNOS protein expression in activated macrophages (western blot)", "format": "cell-based, mouse", "conditions": "1, 5 and 10 μM, 24 hrs after LPS stimulation", "experimental": "RAW 264.7 macrophages, a mouse cell line (ATCC # TIB 71), were grown in Dulbecco's modified Eagle's medium (DMEM) with 4 mM L-glutamine adjusted to contain 1.5 g/L sodium bicarbonate, 4.5 g/L glucose, and 10% heat inactivated fetal bovine serum. Cells were grown in tissue culture flasks and seeded at appropriate density into 6 wells tissue culture plates. Four million Raw cells in half a milliliter were stimulated with 1 μg/ml Lipopolysaccharide E. coli 055:B5 (DIFCO Laboratories). The mouse macrophages were pre-treated for one hour with controls or 10 μM of test compounds, and later on activated with LPS. RNA samples were extracted from the cells 3 hrs after activation and iNOS gene expression levels were analyzed by real-time RT-PCR as previously described. For western blot analysis, compounds were tested at 1, 5 and 10 μM and cells were harvested 24 hrs after LPS stimulation. Supernatant were collected and NO secretion was analyzed using ELISA. […]\nTo assess correlation between gene expression and protein expression, protein extracts were prepared from the various treated activated macrophages. […] Primary antibodies against cyclophilin A were used as control (Upstate, Cat# 07-313), and the amount of iNOS was assessed using NOS2 (C11) Santa Cruz antibodies (Cat# SC-7271) were hybridized for 2 hours at room temperature. […]"}, "[2]": {"system": "MOG induced chronic progressive EAE", "assay": "MOG induced chronic-progressive EAE", "conditions": "for animals that reached a clinical score of 0 (fully recovered): 13 animals per group"}, "iNOS [3]": {"system": "iNOS", "assay": "iNOS gene expression in LPS activated RAW 264.7 macrophages (real-time RT-PCR)", "format": "cell-based, mouse", "experimental": "RAW 264.7 macrophages, a mouse cell line (ATCC # TIB 71), were grown in Dulbecco's modified Eagle's medium (DMEM) with 4 mM L-glutamine adjusted to contain 1.5 g/L sodium bicarbonate, 4.5 g/L glucose, and 10% heat inactivated fetal bovine serum. Cells were grown in tissue culture flasks and seeded at appropriate density into 6 wells tissue culture plates. Four million Raw cells in half a milliliter were stimulated with 1 μg/ml Lipopolysaccharide E. coli 055:B5 (DIFCO Laboratories). The mouse macrophages were pre-treated for one hour with controls or 10 μM of test compounds, and later on activated with LPS. RNA samples were extracted from the cells 3 hrs after activation and iNOS gene expression levels were analyzed by real-time RT-PCR as previously described. For western blot analysis, compounds were tested at 1, 5 and 10 μM and cells were harvested 24 hrs after LPS stimulation. Supernatant were collected and NO secretion was analyzed using ELISA. Cells were washed 3 times with cold PBS, scrapped and lyzed in 100 μl cell lysis buffer containing 20 mM HEPES, pH 7.6, 150 mM NaCl, 1.5 mM MgCl2, 0.2 mM EDTA, 1% Triton X-100, 10% glycerol, 1 mM DTT, 1 mM PMSF, 10 μg/ml aprotinin. 5 µg/ml leupeptin, 10 mM p-nitrophenyl phosphate, 100 mM β-glycerophosphate, 1 mM sodium fluoride, and 0.1 μM sodium orthovanadate. Cells were lyzed on ice for 10 minutes before further processing.\nThe results of this experiment are expressed as fold activation of iNOS over non-activated macrophages, after normalization to cyclophilin A expression. Compound 18A inhibits 63% of iNOS gene expression, and compounds 18B, 18E and 18F inhibit 55%, 25% and 100% respectively. […] This surprising observation strengthen the fact that compounds of the invention, though chemically related, have distinct and unexpected properties."}, "CB2 receptor": {"target": "CB2 receptor (Homo sapiens, UniProt P34972)", "sequence (P34972 whole entry)": "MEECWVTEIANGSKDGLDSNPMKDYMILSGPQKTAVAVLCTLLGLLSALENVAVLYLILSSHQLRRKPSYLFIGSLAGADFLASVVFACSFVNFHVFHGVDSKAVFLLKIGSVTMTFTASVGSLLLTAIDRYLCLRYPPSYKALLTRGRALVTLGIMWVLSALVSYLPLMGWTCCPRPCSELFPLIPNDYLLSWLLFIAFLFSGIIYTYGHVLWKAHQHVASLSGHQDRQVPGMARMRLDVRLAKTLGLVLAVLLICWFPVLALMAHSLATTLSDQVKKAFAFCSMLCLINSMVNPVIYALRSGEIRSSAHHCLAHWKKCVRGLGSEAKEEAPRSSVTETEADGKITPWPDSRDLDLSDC", "assay": "CB2 binding assay"}}, "data": [{"smiles": "CCCCCCC(C)(C)c1cc(O)c([C@H]2CC(=O)C3CC2C3(C)C)c(OC(=O)/C=C/C(=O)O)c1", "note": "(single isomer, unassigned; (-)) [Compound 18F, (−)-4-{4-[1,1-Dimethylheptyl]-2-fumarate-6-hydroxy-phenyl}-6,6-dimethyl-bicyclo[3.1.1]heptan-2-one]", "values": [{"measurement": "body temperature", "setting": "ICR male mice; 30, 60, 80 and 100 mg/kg p.o.", "value": "transient hypothermia"}, {"measurement": "time to regain normothermia", "setting": "ICR male mice; 30 and 60 mg/kg p.o.", "value": "≤ 24", "unit": "h"}, {"measurement": "body temperature below baseline at the end of follow-up period", "setting": "ICR male mice; 80 and 100 mg/kg p.o.", "value": 2, "unit": "°C"}, {"measurement": "safety at therapeutically effective doses", "setting": "ICR male mice; doses of up to 60 mg/kg p.o.", "value": "found to be safe"}, {"measurement": "catalepsy and spontaneous or forced locomotor activity", "setting": "ICR male mice; p.o., up to maximal dose tested of 100 mg/kg", "value": "no effect"}, {"measurement": "iNOS protein band (western blot)", "setting": "iNOS [1]", "value": "clear dose dependent disappearance of iNOS protein band"}, {"measurement": "reduction of clinical score, first peak day 14 to 25", "setting": "[2]; 20 mg/kg p.o. daily for 19 days from day 13", "value": "about 12%"}, {"measurement": "animals that reached a clinical score of 0 (fully recovered)", "setting": "[2]; 20 mg/kg p.o.", "value": 8, "unit": "%"}, {"measurement": "reduction of clinical score, first peak day 14 to 25", "setting": "[2]; 40 mg/kg p.o. daily for 19 days from day 13", "value": 43, "unit": "%"}, {"measurement": "animals that reached a clinical score of 0 (fully recovered)", "setting": "[2]; 40 mg/kg p.o.", "value": 23, "unit": "%"}, {"measurement": "clinical score for about a week from day 36", "setting": "[2]; 60 mg/kg p.o.", "value": "about 0.2"}, {"measurement": "reduction of clinical score as compared to control, week from day 36", "setting": "[2]; 60 mg/kg p.o.", "value": 80, "unit": "%"}, {"measurement": "reduction of clinical score, first peak day 14 to 25", "setting": "[2]; 60 mg/kg p.o. daily for 19 days from day 13", "value": 44, "unit": "%"}, {"measurement": "animals that reached a clinical score of 0 (fully recovered)", "setting": "[2]; 60 mg/kg p.o.", "value": 31, "unit": "%"}, {"measurement": "clinical score below control at the end of the study", "setting": "[2]; 60 mg/kg p.o., 20 days after treatment cessation", "value": 30, "unit": "%"}, {"measurement": "clinical score at the end of the study", "setting": "[2]; 60 mg/kg p.o., 20 days after treatment cessation, control 0.95", "value": 0.65}, {"measurement": "plateau level clinical score", "setting": "[2]; 60 mg/kg p.o., control about 1.2", "value": "about 0.6"}, {"measurement": "side effects", "setting": "[2]; high doses p.o., first 10 minutes post administration, eliminated from day 4", "value": "Some minor and transient side effects were observed"}, {"measurement": "day of first full recovery", "setting": "[2]; highest dose (60 mg/kg p.o.), treatment from day 13", "value": 16, "unit": "days"}, {"measurement": "day of first full recovery", "setting": "[2]; intermediate dose (40 mg/kg p.o.)", "value": 17, "unit": "days"}, {"measurement": "day of first full recovery", "setting": "[2]; lowest dose (20 mg/kg p.o.)", "value": 22, "unit": "days"}, {"measurement": "reduction of AUC as compared to control group", "setting": "[2]; separate study, 40 mg/kg p.o.", "value": 36, "unit": "%"}, {"measurement": "AUC of clinical score", "setting": "[2]; separate study, daily from day 13, 18F 40 mg/kg p.o., COP-1 25 mg/kg s.c., IFN-β 10,000 IU per mouse s.c., control 24.14", "value": 15.47, "unit": "units"}, {"measurement": "mean group clinical score at the end of the study", "setting": "[2]; separate study, daily from day 13, 18F 40 mg/kg p.o., COP-1 25 mg/kg s.c., control above 2.4", "value": 1.25}, {"measurement": "effect of CB1 or CB2 antagonists on iNOS inhibiting activity", "setting": "iNOS [3]; 5 μM of SR-141716 and SR-144528", "value": "only blocked by CB2 antagonists"}, {"measurement": "inhibition of iNOS gene expression", "setting": "iNOS [3]; 10 μM, 1 h pre-treatment, 3 hrs after LPS activation", "value": 100, "unit": "%"}, {"measurement": "IC50", "setting": "CB2 receptor", "value": 9, "unit": "nM"}]}]}
